Each structure is given as a SMILES string.

This is an account of results in patent publication US4564476A, “Aryl fatty acid leukotriene synthesis inhibitors” (McNeilab, Inc., priority 1984, dated 1986).

Assay [1] relates to guinea pig lung parenchymal tissue. The assay can be described thus: Immunologically Mediated Contraction of the Parenchymal Strip (IMCPS). On the set-up: species or system guinea pig (male Hartley strain). Particulars: Cavia porcellus, egg albumin induced contraction of sensitized guinea pig lung parenchymal strip, with chlorpheniramine 10.0 μM and indomethacin 100.0 μM, relative to control tissue, read-out: IMCPS % inhib. 100 μM. How it is done: (a) Immunologically Mediated Contraction of the Parenchymal Strip (IMCPS)
It is a modification of the procedure published by K. Forsberg and L. Sorenby in Agents and Actions, Vol. 9 pp. 364-368 (1978). In this test, male Hartley strain guinea pigs weighing 400 to 600 g were sensitized by subcutaneous administration of chicken egg albumin (Sigma A-5503, 1.0 mg, 0.5% solution) and bordetella pertussis, 11×10^9 cells (Massachusetts Public Health Biological Labs) 4 to 8 weeks prior to the experiment. The animals were sacrificed, the heart and lungs were removed en bloc and placed in Krebs solution at room temperature. Lung strips (2.5 cm in length) were cut from the peripheral edge of each lobe. Two strips were removed from each animal and were trimmed to be of equal length. Each strip was suspended in an isolated organ bath (10.0 ml) containing oxygenated Krebs buffer solution at 37.5° C. then attached to a force displacement transducer (Grass FT03) and placed under an initial tension of 1.0 g. The tissues were allowed to equilibrate for 45-60 minutes, during which the bathing solution was changed several times. At the end of the equilibration period, chlorpheniramine (10.0 μM) and indomethacin (100.0 μM) were added to eliminate the contribution of histamine and prostaglandins to the contractile response. The two tissues from each animal were matched so that one tissue served as a control, and the test drug dissolved in DMSO was added to the bath containing the other tissue at a final concentration of 100 μM. After 30 minutes, egg albumin was added to each bath and the contractile response was measured as milligrams of tension developed as recorded on a Grass Model 7D polygraph.

Assay [2] relates to lipoxygenase metabolites released or generated from human granulocyte cells. In words: Human Granulocyte Assay for Lipoxygenase Products (HGALP). It is filed as cell-based. Conditions: [3H]-arachidonic acid prelabeled human granulocytes, 10 μM ionophore A23187 challenge, 14 μM indomethacin. As to the method:
(b) Human Granulocyte Assay for Lipoxygenase Products (HGALP)
This test is a measurement of the inhibition of the synthesis or release of [3H]-labeled lipoxygenase metabolites released or generated from human granulocyte cells that are prelabeled with [3H]-arachidonic acid. These metabolites include the leukotrienes (e.g., LTB4) which are potent mediators of inflammation and allergy. In this test, a granulocyte enriched fraction is prepared from freshly drawn human blood (50 ml/donor) by standard techniques involving unit gravity separation on ficoll hypaque. Cells are prelabeled with [3H]-arachidonic acid (20 μCi in 2 ml cell suspension) during a 30 min. incubation at 37° C. After washing out unincorporated label, the radiolabeled cells are brought up in incubation buffer (Minimum Essential Medium containing 14 μM indomethacin) to a 10^7 cell/ml concentration. Cell suspensions (1 ml/sample) are preincubated for 5 min. in the presence or absence of test drugs delivered in 5 μl dimethylsulfoxide (DMSO). Cell suspensions are challenged with 10 μM ionophore A23187 to activate the calcium-dependent metabolism of [3H]-arachidonic acid. After a 5 min. incubation at 37° C., incubations are terminated by the addition of 1 ml ice cold phosphate buffered saline, and cells are pelleted by centrifugation. Supernatants are passed through C18 Sep Pak® cartridges which are then washed twice with 1 ml water. Lipoxygenase metabolites are eluted with two 1 ml volumes of methanol. Eluates are collected in scintillation vials and counted in Aqueous Counting Scintillant (ACS). Radioactivity eluted with methanol is a measure of lipoxygenase metabolites. Values are normalized to vehicle (5 μl DMSO) treated controls and expressed as percent inhibition. Triplicate determinations at each drug concentration are analyzed as log-dose response curves by linear regression analysis from which IC50 values are derived.

The test system is the same in assay [3]. The description is as above. It counts as cell-based. Conditions: [3H]-arachidonic acid prelabeled human granulocytes, 10 μM ionophore A23187.

As for `CC(C)(/C=C\CCCC(=O)O)COCc1ccccc1` [Example 1c, 7,7-Dimethyl-8-(phenylmethoxy)-5(Z)-octenoic Acid], in assay [1], the inhibition at 100 µM turned out to be 79%.

On to `CN(C)C(=O)CCC/C=C\C(C)(C)COCc1ccccc1` [Example 2, N,N,7,7-Tetramethyl-8-(phenylmethoxy)-5(Z)-octenamide], for which, in assay [2], the IC50 was determined as 42 µM. For the same compound, in assay [1], the inhibition at 100 µM was found to be 19%.

On to `CC(C)(/C=C\CCCCO)COCc1ccccc1` [Example 4, 7,7-Dimethyl-8-(phenylmethoxy)-5(Z)-octenol], for which the IC50 in assay [2] is 17 µM. For the same compound, in assay [1], the inhibition at 100 µM is 38%.

Turning to `COc1ccc(COCC(C)(C)/C=C\CCCC(=O)O)cc1` [Example 5c, 7,7-Dimethyl-8-(4-methoxyphenylmethoxy)-5(Z)-octenoic Acid], the inhibition at 100 µM amounted to 18% in assay [3] and 31% in assay [1].

Consider `COC(=O)CCC/C=C\C(C)(C)COCc1ccc(O)cc1` [Example 6, Methyl 7,7-dimethyl-8-(4-hydroxyphenylmethoxy)-5(Z)-octenoate], for which the IC50 in assay [2] was determined as 39 µM. Also, the inhibition at 100 µM in assay [1] was found to be 49%.

`CC(C)(/C=C\CCCC(=O)O)COCc1ccc(O)cc1` [Example 7, 7,7-Dimethyl-8-(4-hydroxyphenylmethoxy)-5(Z) Octenoic Acid]: the IC50 in assay [2] worked out at 255 µM. In assay [1], the inhibition at 100 µM was 4%.

Consider `COC(=O)CCC/C=C\C(C)(C)C=Cc1ccc(Cl)cc1` [Example 8c, Methyl 9-(4-chlorophenyl)-7,7-dimethyl-5(Z),8-nonadienoate], for which the IC50 in assay [2] amounted to 6.6 µM. Further, in assay [1], the inhibition at 100 µM stood at 15%.

In the case of `CC(C)(C=Cc1ccc(Cl)cc1)/C=C\CCCC(=O)O` [Example 9, 9-(4-Chlorophenyl)-7,7-dimethyl-5(Z),8-nonadienoic acid], the IC50 in assay [2] was 19 µM. Besides, the inhibition at 100 µM in assay [1] is 76%.

For the compound `CC(C)(/C=C\CCCC(=O)O)COCC=Cc1ccccc1` [Example 10c, 7,7-Dimethyl-8-(3-phenyl-2-propenoxy)-5(Z) octenoic Acid], the values for the inhibition at 100 µM in assay [3] and in assay [1] were 5% and 44%, respectively.

As for `CCCC=Cc1ccccc1COCC(C)(C)/C=C\CCCC(=O)O` [Example 11g, 7,7-Dimethyl-8-[2(1-pentenyl)phenylmethoxy]-5(Z)octenoic acid], the IC50 in assay [2] was 96 µM. In addition, the inhibition at 100 µM in assay [1] worked out at 40%.

As usually defined, the IC50 is the midpoint of a concentration-inhibition curve.
